This passage reports melting point results from a melting point compilation (Tetko et al.; mined from patent text by program, amines drawn as free bases though some values may be those of a salt).

Residues, ends and D or L forms follow the SMILES beside them. *: point of attachment. Cbz = O=C(OCc1ccccc1)*; Boc = CC(C)(C)OC(=O)*; OBn = c1ccc(CO*)cc1

Consider `O=C(CN1CCN(c2ccccc2F)CC1)Nc1ccc2c(c1NC(=O)c1ccccc1)C(=O)c1ccccc1C2=O`, for which the melting point (in general, the temperature, or range, at which the solid turns liquid) lay within 228 to 229 °C. The compound `O=C(O)C1=Cc2c(ccc3oc4ccccc4c23)OC1C(F)(F)F` (stereo unspecified) gave a melting point of 254 to 255 °C.

The compound `Cc1cc(C)n(-c2nnc(-c3ccc(Cl)cc3)c(C)n2)n1` gave a melting point of 151 to 152 °C. For `CN1CCN(C(=O)c2ccc(-c3ccc4nnn(Cc5ccc6ncccc6c5)c4n3)cc2)CC1`, the melting point lay within 156 to 158 °C.

`CCN(CCCc1c[nH]c2c(OC)cccc12)C1COc2c(F)ccc(C(N)=O)c2C1` (stereo unspecified) had a melting point of 148 to 153 °C. With `COc1cccc2c1nc(C(F)F)n2-c1nc(Nc2ccc(NS(C)(=O)=O)nc2)nc(N2CCOCC2)n1`, the melting point lay in the range of 302 to 306 °C.

For the compound `CCN(CC)C(=O)Oc1cc(-c2ccccn2)nc2ccccc12`, the melting point is 100 °C.

`CCc1nc2c(C)cc(C)nc2n1Cc1ccc(C(Cc2ccccc2)C(C(=O)O)C(=O)O)cc1` (stereo unspecified) showed a melting point of 127 to 128 °C.

In turn, `Cc1nc2cccc(OCc3ccccc3)c2[nH]1` returned a melting point of 119 to 121 °C. As for `COc1ccc(-c2cc3ccccc3[nH]2)c(C)c1`, the figure is 131 °C; as for `NCc1ccn(C2=CC3=C(CC2)CCc2[nH]c(=O)c(=O)n(CC(=O)O)c23)c1`, over 250 °C; as for `Cc1cc(C)c(C#N)c(-c2ccc(F)c(C)c2)c1`, 98 to 100 °C. Regarding `CC(=O)NC1CCc2[nH]c3c(F)cc(F)cc3c2C1` (stereo unspecified), the melting point is 179 to 183 °C.

`COC(=O)c1cc(=O)n2nc(COC(C)=O)nc2[nH]1` registered a melting point of 260 °C. Regarding `Cc1cc(=O)c(O)co1`, the melting point is 152 to 153 °C.

Compound `C[Si](C)(C)NC(=O)CC(=O)N[Si](C)(C)C` registered a melting point of 72 to 76 °C. `COc1ccc(C2CCCCC2)cc1-c1csc(NC(=O)N2CCN(C[C@@H]3CCCN(CCC(=O)O)C3)CC2)n1` showed a melting point of 144 °C.

Compound `Cc1ccc(-c2ccc3c(c2)OCO3)cc1` showed a melting point of 57 to 60 °C. `O=C(CCCCl)c1ccc2ccccc2c1` had a melting point of 43 to 44 °C. `CCCn1cc(C(=O)O)c(=O)c2cc(C)sc21` came in with a melting point of 207 to 208 °C.

The compound `NC(=S)N1CCc2cccnc21` had a melting point of 173 °C.

As to `COC(=O)C(=O)c1ccc(OCCOc2ccc3ccccc3c2)c(F)c1`, the melting point is 136 to 138 °C. `Cc1nc(N2CCCC(Cc3cccnc3)C2=O)sc1C(=O)NCc1ccccc1` (stereo unspecified) gave a melting point of 140 to 141 °C.

For `COc1ccc(CNC(=O)n2cc(F)c(=O)[nH]c2=O)c(OC)c1`, the melting point came to 154 °C. Compound `O=C1c2ccc(Cl)cc2C(=O)N1c1ccccc1` yielded a melting point of 187 to 189 °C. In the case of `CNc1c(Cl)cc(C(=O)NCC2CCN(CCCOC)CC2)c2nccn12`, the melting point came to 125 °C. Then `CS(=O)(=O)c1ccc(-c2cnn(-c3ccc(F)cc3)c(=O)c2COc2ccccc2)cc1`, with 42 to 75 °C; and `CC1=C(C(=O)OC2CN(C(c3ccccc3)c3ccccc3)C2)C(c2cccc([N+](=O)[O-])c2)C(C(=O)OC(C)C)=C(N)N1` (stereo unspecified), with 104 to 107 °C; and `CCOC(=O)c1c(CC)nn2c(-c3ccccc3)ccnc12`, with 83 to 84 °C.

In turn, `CC1(C)C(=NO)C(=NO)C(C)(C)N1C(=O)c1ccccc1` registered a melting point of 235 to 240 °C. Compound `O=C(NCc1ccc(Cl)cc1)n1cc(Br)cnc1=O` returned a melting point of 158 to 160 °C. In turn, `COc1ccc(N2CCOCC2)c2sc(C(=O)NCC(=O)c3csc4ccccc34)nc12` yielded a melting point of 210 °C. Then `Cc1cc(Br)cnc1CCCCN=C(NCCCc1c[nH]cn1)NC(=O)c1ccccc1`, with 126 to 128 °C; and `Cc1c(CC(=O)O)c2cc3c(cc2n1C(=O)C=Cc1ccccc1)OCO3`, with 190 to 191 °C; and `Cc1cc2c(c3ccc(=O)[nH]c13)OC(CNC(=O)[C@@H](C)NC(=O)OCc1ccccc1)C2` (stereo partly specified), with 221 to 222 °C. In the case of `Cc1cc(-c2ccccc2C)ccc1NC(=O)c1ccc2n1Cc1ccccc1N(C(=O)COc1ccc(Cl)cc1)C2`, the melting point was 159 to 161 °C. Then `NC(=S)NN=C(CNC(=O)c1ccccc1)c1ccccc1`, with 171 to 172 °C; and `O=C1NC(=O)c2c1c(-c1ccccc1)cc1c2c2cc(O)ccc2n1CCN1CCOCC1`, with 260 to 262 °C. Regarding `CCCCCCCC1CC(C(=O)Nc2c(C(C)C)cccc2C(C)C)C(=O)O1` (stereo unspecified), the melting point lay in the range of 95 to 98 °C. In turn, `O=C1NC(=O)C(Cc2ccc(N3CCC(NC[C@H](O)c4csc(C(F)(F)F)n4)CC3)cc2)S1` (stereo partly specified) gave a melting point of 108 to 113 °C. Turning to `COCc1cc(-n2nc(C(F)(F)F)cc2-c2ccc(-c3ccco3)cc2)ccc1S(C)(=O)=O`, the melting point lay within 142 to 143 °C. Then `O=C(NC(=O)N1CCOCC1)c1cccc(-c2noc(-c3ccccc3F)n2)c1`, with 190 to 194 °C. `COCCOc1ccc(/C=C(\C)C(=O)NS(=O)(=O)C(F)(F)F)c(Oc2ncc(C(F)(F)F)cc2Cl)c1` showed a melting point of 146 to 147 °C.

On to `CC(C(=O)c1ccccc1)=C1CCCN1`, for which the melting point is 91 to 92 °C.

Compound `COCC1CN(c2ccc3cc(OCc4ccccc4)ccc3c2)C(=O)O1` (stereo unspecified) registered a melting point of 150 °C. `N#Cc1cc(F)ccc1Oc1ccc(-c2cn(C3CCOCC3)c3ncnc(N)c23)cc1` yielded a melting point of 216 to 217 °C. In turn, `O=c1cc(CO)oc(CO)c1O` displayed a melting point of 160 to 161 °C. As to `CCn1c(=O)c2[nH]c(/C=C/c3cccc(Br)c3)nc2n(CC)c1=O`, the melting point is over 270 °C. As to `CN(C)C(=O)N1CCC(Oc2ccc(C(F)(F)F)cc2)(c2ccccc2)CC1`, the melting point lay in the range of 158 to 160 °C. As for `CC(=O)SC[C@H](NC(=O)C(C)C)C(=O)NCCSC(=O)C(C)(C)C`, the melting point lay within 112 to 114 °C. As for `CSCCC(NC(=O)OC(C)(C)C)C(=O)NC(C)C(=O)NC(C(=O)NC(CCCCNC(=O)OCc1ccccc1)C(=O)OCc1ccccc1)C(C)C` (stereo unspecified) (Boc-MAVK(Cbz)-OBn; configuration not given here), the melting point was in the range of 169 to 171 °C. As for `NC1=NC(c2ccc(OC(F)(F)F)cc2)(c2cccc(-c3cccnc3F)c2)C2=NCCCCN12` (stereo unspecified), the melting point was 88 to 97 °C. `O=C(CCc1ccccc1)C(Cc1ccccc1)(Cc1ccccc1)C(=O)CCc1ccccc1` gave a melting point of 84 to 86 °C. `O=C(NC1CN2CCC1CC2)c1cccc2oc(-c3ccc(Cl)cc3)nc12` (stereo unspecified) yielded a melting point of 194 to 196 °C. Turning to `CCOC(=O)c1c(CN(CC)CC)nc2sc3c(c2c1-c1ccc(Cl)cc1)CCN(C(=O)c1ccccc1)C3`, the melting point is 177 to 178 °C. As for `O=S(=O)(NCCO)c1ccc(Nc2nc(OCC3CCCCC3)c3nc[nH]c3n2)cc1`, the melting point was in the range of 158 to 160 °C. With `COc1cc(P(c2ccccc2)c2ccccc2)c(Br)c(OC)n1`, the melting point lay within 150 to 151 °C.

With `COc1cc2c(cc1OC)C(O)N(CCc1ccccc1)C2=O` (stereo unspecified), the melting point was 130 °C.

Consider `CCC(=O)NC(C)(C(=O)NS(=O)(=O)c1ccc(C)cc1)C(C)C` (stereo unspecified), for which the melting point lay within 166 to 168 °C.

Take `COc1ccc2cc3c(N)nn(CCN4CCOCC4)c3nc2c1`: the melting point lay in the range of 166 to 168 °C. `COc1ccc2[nH]c(C(C)C)c(C=O)c2c1` registered a melting point of 181 to 183 °C. As to `Nc1nc2ccccc2c2c1ncn2CCOCc1cc2ccccc2o1`, the melting point was in the range of 201 to 203 °C.

`CCc1nc2c(cnn2CC)c(NC2CCOCC2)c1CNC(=O)c1cccc(C(=O)NCc2ccc(OC)c(-c3cccc(C=O)c3)c2)c1` yielded a melting point of 118 to 121 °C. As for `O=C(CCCCl)Nc1n[nH]c2cc(Cl)ccc12`, the figure is 220 °C.

Compound `CC=NOCc1nc2c(N)nc(C)c(C)c2n1CCCCNC(=O)c1ccccc1` had a melting point of 192 to 194 °C.

In turn, `CCc1[nH]nc2c1C(=O)c1c(NC(=O)NN3CCOCC3)cccc1-2` registered a melting point of 253 to 254 °C. `O=C(O)CCCCc1nn(-c2ccccc2)c2c1CCC2` gave a melting point of 98 to 99 °C.

Regarding `CSc1nc(NC2CCCCC2)c2nonc2n1`, the melting point was 129 to 130 °C.

`CCOC(=O)C(=Nc1ccccc1)c1cccn1C` returned a melting point of 69 to 71 °C. Compound `CSc1sc(C(=O)O)c2c1-c1oc(C)nc1CC2` returned a melting point of over 300 °C. Consider `O=C(O)COc1c(-c2cc(Cl)cc(Cl)c2)cc(C(=O)NCCCCCCCCc2ccccc2)cc1-c1cc(Cl)cc(Cl)c1`, for which the melting point is 139 to 149 °C. In turn, `Clc1ccc2nc(CN3CCN(c4ccccc4)CC3)cn2c1` came in with a melting point of 128 to 130 °C.

Regarding `CCCCC1=NC2(CCCC2)C(=O)N1Cc1ccc(-c2ccccc2S(=O)(=O)Nc2noc(C)c2C)c(CO)c1`, the melting point lay within 90 to 98 °C. Regarding `CCN1c2ncccc2NC(=O)c2cc(CCc3ccccc3)cnc21`, the melting point fell in the range of 183 to 184 °C.

Take `Fc1cc(F)c(-c2c(Cl)ncn2-c2ccc(Cl)cc2)c(F)c1`: the melting point fell in the range of 102 to 104 °C.

Compound `COC(=O)C(=O)CC(=O)c1ccccn1` showed a melting point of 86 to 87 °C.

For `Cc1cccc2ncc(C(=O)NC3CCCC3)c(=O)n12`, the melting point is 158 to 160 °C. Then `COc1cc2cc(-c3cc(C)c(O)c(C)c3)[nH]c(=O)c2c(OC)c1CN1CCOCC1`, with 158 to 161 °C.

`COC(=O)c1cccc(CN2C(=O)C3(COc4cc5c(cc43)OCCO5)c3ccccc32)c1` (stereo unspecified) yielded a melting point of 89 to 97 °C. In turn, `COc1cc(F)c(C)cc1C#N` had a melting point of 99 to 101 °C. Turning to `Cc1cn(CC(=O)N(CCNC(=O)OC(C)(C)C)CC(=O)O)c(=O)[nH]c1=O`, the melting point is 142 to 147 °C. `CS(=O)(=O)Oc1cnc2cc(C(F)(F)F)ccc2c1O` came in with a melting point of 220 °C.

Compound `CCCCn1nnc2cc(C(O)c3ccsc3)ccc21` (stereo unspecified) had a melting point of 80 °C.

`CCOC(=O)c1c(C)nn(C)c1CSC(=N)N` returned a melting point of 175 to 180 °C.

`CNC(=O)ON=C1SC(C)C(=O)NC1(C)C` (stereo unspecified) displayed a melting point of 190 to 191 °C.

As to `CC12CCC(C1)C1(C)Oc3ccc(C4(c5ccc(C(=O)O)cc5)OCCO4)cc3C21C` (stereo unspecified), the melting point was in the range of 234 to 236 °C.
